Experimental findings from ChEMBL document CHEMBL2203226, “PPAR-γ agonistic metabolites from the ascidian Herdmania momus” (J Nat Prod, 2012) are described below.

Values after ≈ are worked out from the molar mass of the structure shown. Active and inactive are the calls of the source. The calls are words filed in the database; no cut-off is given here.

In general, IC50 refers to the concentration needed to halve the response being measured.

Experiment [1] has as its target T1, Peroxisome proliferator-activated receptor gamma (Homo sapiens) (UniProt P37231).
T1 sequence (whole entry): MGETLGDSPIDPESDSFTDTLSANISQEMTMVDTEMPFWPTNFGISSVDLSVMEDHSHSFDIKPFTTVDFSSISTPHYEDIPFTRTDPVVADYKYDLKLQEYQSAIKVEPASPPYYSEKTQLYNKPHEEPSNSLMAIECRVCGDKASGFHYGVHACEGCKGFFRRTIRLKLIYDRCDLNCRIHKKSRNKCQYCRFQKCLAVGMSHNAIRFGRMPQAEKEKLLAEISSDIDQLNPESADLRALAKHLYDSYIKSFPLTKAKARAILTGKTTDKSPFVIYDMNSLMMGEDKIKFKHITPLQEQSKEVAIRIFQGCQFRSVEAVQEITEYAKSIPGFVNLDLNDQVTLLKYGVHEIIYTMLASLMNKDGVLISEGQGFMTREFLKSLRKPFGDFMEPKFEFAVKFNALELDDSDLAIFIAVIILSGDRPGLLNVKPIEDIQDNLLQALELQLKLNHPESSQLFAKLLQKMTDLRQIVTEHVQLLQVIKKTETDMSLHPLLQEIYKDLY
Nature of the experiment: Agonist activity at full length human PPARgamma transfected in rat Ac2F cells cotransfected with PPRE-TK-luc assessed as induction of transactivation activity at 1 ug/ml by luciferase reporter gene assay relative to control. The experiment is classed as functional, cell-based. For orientation: In a reporter assay the amount or activity of a reporter protein is the signal.

Experiment [2] has as its target T1, Peroxisome proliferator-activated receptor gamma (Homo sapiens). Put plainly: Agonist activity at full length human PPARgamma transfected in rat Ac2F cells cotransfected with PPRE-TK-luc assessed as induction of transactivation activity at 10 ug/ml by luciferase reporter gene assay relative to control. The experiment is classed as functional, cell-based.
Experiment [3] relates to Radical scavenging activity. Nature of the experiment: Antioxidant activity assessed as DPPH radical scavenging activity. The experiment is classed as functional. Background: DPPH is a stable violet radical that fades when it is reduced.
The nature of experiment [4]: Antioxidant activity assessed as radical scavenging activity by NBT reduction assay. The experiment is classed as functional.

In the case of `N=C(N)NCCC[C@@H](NC(=O)C(=O)c1c[nH]c2cc(O)ccc12)C(=O)O`, the result in experiment [1] and in experiment [2] was Active.
With `O=C(N[C@H](Cc1c[nH]cn1)C(=O)O)C(=O)c1c[nH]c2cc(O)ccc12`, the outcome in experiment [1] and in experiment [2] was Active.
Turning to `N[C@@H](Cc1ccc(OC(=O)c2ccc(O)cc2)cc1)C(=O)O`, the 50% inhibitory concentration (IC50) worked out at 2.31 µg/mL (≈ 7.67 µM) in experiment [3] and 1.78 µg/mL (≈ 5.91 µM) in experiment [4].
Regarding `N[C@H](CCCCNC(=O)C(=O)c1c[nH]c2cc(O)ccc12)C(=O)O`, the result in experiment [1] and in experiment [2] was Active.
